In assay [1] the test system is symmetric dimethylation of arginine (SDMA) of PRMT5 substrates in MCF-7 cells. Put plainly: PRMT5 Cell Target Engagement (TE) Assay. To be noted: Homo sapiens, MCF7, 72 h, 3 days treatment, SDMA high content imaging. In kind it is cell-based. The method, boiled down: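 MCF-7 cells treated 3 days at 37 °C with a ten-point 1:3 titration from 10000 nM. Fixed cells immunostained with anti-SDMA and Alexa488 secondary; nuclear fluorescence quantified by high-content imaging versus DMSO wells, with IC50 from a 4-parameter fit.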

Assay [2] addresses T1, Full-length (FL)-PRMT5-MEP50 enzyme complex (Homo sapiens, UniProt O14744).
T1 construct: Full-length (FL)-PRMT5-MEP50 enzyme complex (recombinant proteins from baculovirus-transfected Sf21 cells: FL-PRMT5; MW=73837 kDa and FL-MEP50; MW=38614); made in house; host or cells: baculovirus-transfected Sf21 cells
Put plainly: PRMT5-MEP50 Enzyme Methylation Assay (Version A). In kind it is biochemical. The procedure, abridged:
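Compound was pre-incubated with enzyme for 60 min, then reacted 150 min at 37° C. at final 1.0 nM PRMT5-MEP50, 15 μM SAM and 75 nM biotinylated H4R3(Me1) peptide, in 50 mM Bicine pH 8.0 with 1% DMSO. SAMDI mass-spectrometric readout of Me1→Me2 conversion. EC50 from 4- or 7-parameter regression.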

The mark [3] stands for this setting: second value of 7 parameter biphasic fit, read-out: Enzyme Methylation Assay Version A (EC50 2).
Where [4] appears, read: single EC50 = 4 parameter single site sigmoidal fit, EC50 1 = first value of 7 parameter biphasic fit, read-out: Enzyme Methylation Assay Version A (EC50 or EC50 1).

Structures are written as SMILES. Where two headings read alike, the source gives them in different places.

T1 sequence (O14744 whole entry): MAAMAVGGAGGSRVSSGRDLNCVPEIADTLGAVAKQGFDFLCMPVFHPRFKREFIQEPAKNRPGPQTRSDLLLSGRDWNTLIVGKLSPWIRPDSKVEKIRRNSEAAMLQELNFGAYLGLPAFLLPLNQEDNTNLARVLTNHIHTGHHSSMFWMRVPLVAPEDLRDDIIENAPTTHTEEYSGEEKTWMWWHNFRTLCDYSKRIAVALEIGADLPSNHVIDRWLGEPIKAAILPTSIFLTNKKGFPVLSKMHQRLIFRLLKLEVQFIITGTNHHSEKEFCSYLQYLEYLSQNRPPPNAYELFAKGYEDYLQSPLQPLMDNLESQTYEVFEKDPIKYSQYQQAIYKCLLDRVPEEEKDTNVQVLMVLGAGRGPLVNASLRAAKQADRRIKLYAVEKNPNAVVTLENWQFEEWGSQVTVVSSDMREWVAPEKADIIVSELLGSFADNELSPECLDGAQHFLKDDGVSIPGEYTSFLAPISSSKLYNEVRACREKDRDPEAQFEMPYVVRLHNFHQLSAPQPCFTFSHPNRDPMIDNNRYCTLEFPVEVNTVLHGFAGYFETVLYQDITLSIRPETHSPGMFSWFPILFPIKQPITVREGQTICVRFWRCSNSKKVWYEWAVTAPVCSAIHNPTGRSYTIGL
T1 sequence (Q9BQA1 whole entry partner): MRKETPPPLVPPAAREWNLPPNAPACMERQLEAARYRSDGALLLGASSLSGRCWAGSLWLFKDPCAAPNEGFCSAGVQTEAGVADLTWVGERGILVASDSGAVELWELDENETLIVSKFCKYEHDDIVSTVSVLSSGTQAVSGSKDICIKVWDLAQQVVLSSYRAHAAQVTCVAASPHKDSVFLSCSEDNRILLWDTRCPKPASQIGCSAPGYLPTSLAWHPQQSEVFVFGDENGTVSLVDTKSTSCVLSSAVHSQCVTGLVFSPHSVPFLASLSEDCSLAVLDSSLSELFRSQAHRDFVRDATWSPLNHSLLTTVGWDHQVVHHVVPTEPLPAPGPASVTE

`COC(C)c1cc(C(F)(F)F)cn2cc(C(=O)N3CC[C@]4(Cc5ccccc5CN4)[C@H](O)C3)nc12` (stereo partly drawn) [Example 67, [(3R,3′R)-3′-hydroxy-1,4-dihydro-1′H,2H-spiro[isoquinoline-3,4′-piperidin]-1′-yl][8-(1-methoxyethyl)-6-(trifluoromethyl)imidazo[1,2-a]pyridin-2-yl]methanone]: the EC50 in assay [1] was determined as 7.98 nM; in assay [2] (setting [3]), 313 nM; in assay [2] (setting [4]), 0.354 nM.
In the case of `N#CC1(c2cc(Br)cn3cc(C(=O)N4CC[C@]5(Cc6ccccc6CN5)[C@H](O)C4)nc23)CC1` [Example 68, 1-(6-bromo-2-{[(3R,3′R)-3′-hydroxy-1,4-dihydro-1′H,2H-spiro[isoquinoline-3,4′-piperidin]-1′-yl]carbonyl}imidazo[1,2-a]pyridin-8-yl)cyclopropanecarbonitrile], the results for the EC50 in assay [1], in assay [2] (setting [3]) and in assay [2] (setting [4]) were 99.6 nM, 1060 nM and 1.17 nM, respectively.
As to `CC(C#N)c1ccc2nc(C(=O)N3CC[C@]4(Cc5ccccc5CN4)[C@H](O)C3)cn2c1` (stereo partly drawn) [Example 69, 2-(2-{[(3R,3′R)-3′-hydroxy-1,4-dihydro-1′H,2H-spiro[isoquinoline-3,4′-piperidin]-1′-yl]carbonyl}imidazo[1,2-a]pyridin-6-yl)propanenitrile], the EC50 was found to be 12.7 nM in assay [1], 43.6 nM in assay [2] (setting [3]) and 0.405 nM in assay [2] (setting [4]).
On to `O=C(c1cc2ncc(C3CC3)cn2n1)N1CC[C@]2(Cc3ccccc3CN2)[C@H](O)C1` [Example 70, (6-cyclopropylpyrazolo[1,5-a]pyrimidin-2-yl)[(3R,3′R)-3′-hydroxy-1,4-dihydro-1′H,2H-spiro[isoquinoline-3,4′-piperidin]-1′-yl]methanone], for which the results for the EC50 in assay [1], in assay [2] (setting [3]) and in assay [2] (setting [4]) were 263 nM, 240 nM and 0.27 nM, respectively.
The matching figures for `O=C(c1cn2ncc(Br)cc2n1)N1CC[C@]2(Cc3ccccc3CN2)[C@H](O)C1` [Example 71, (7-bromoimidazo[1,2-b]pyridazin-2-yl)[(3R,3′R)-3′-hydroxy-1,4-dihydro-1′H,2H-spiro[isoquinoline-3,4′-piperidin]-1′-yl]methanone]: 1500 nM, 8320 nM and 135 nM.
Consider `Cc1nc(C(F)(F)F)cn2cc(C(=O)N3CC[C@]4(Cc5ccccc5CN4)[C@H](O)C3)nc12` [Example 72, [(3R,3′R)-3′-hydroxy-1,4-dihydro-1′H,2H-spiro[isoquinoline-3,4′-piperidin]-1′-yl][8-methyl-6-(trifluoromethyl)imidazo[1,2-a]pyrazin-2-yl]methanone], for which the EC50 in assay [1] stood at 78.5 nM; in assay [2] (setting [3]) it was 335 nM; in assay [2] (setting [4]), 3.85 nM.
The matching figures for `O=C(c1cc2ncc(C(F)(F)F)cn2n1)N1CC[C@]2(Cc3ccccc3CN2)[C@H](O)C1` [Example 73, [(3R,3′R)-3′-hydroxy-1,4-dihydro-1′H,2H-spiro[isoquinoline-3,4′-piperidin]-1′-yl][6-(trifluoromethyl)pyrazolo[1,5-a]pyrimidin-2-yl]methanone]: 339 nM, 344 nM and 4.43 nM.
The corresponding values for `Cn1nccc1-c1cnc2nc(C(=O)N3CC[C@]4(Cc5ccccc5CN4)[C@H](O)C3)cn2c1` [Example 78, [(3R,3′R)-3′-hydroxy-1,4-dihydro-1′H,2H-spiro[isoquinoline-3,4′-piperidin]-1′-yl][6-(1-methyl-1H-pyrazol-5-yl)imidazo[1,2-a]pyrimidin-2-yl]methanone] are 45.3 nM, 76.7 nM and 0.508 nM.
As for `Cc1nc(C)c(-c2cnc3nc(C(=O)N4CC[C@]5(Cc6ccccc6CN5)[C@H](O)C4)cn3c2)s1` [Example 79, [6-(2,4-dimethyl-1,3-thiazol-5-yl)imidazo[1,2-a]pyrimidin-2-yl][(3R,3′R)-3′-hydroxy-1,4-dihydro-1′H,2H-spiro[isoquinoline-3,4′-piperidin]-1′-yl]methanone], the EC50 in assay [1] is 5.3 nM; in assay [2] (setting [4]) it was 1.08 nM.

For orientation: EC50 means the concentration at which the effect is half-maximal.

The values above are taken from patent US12441730B2, “PRMT5 inhibitors” (Merck Sharp & Dohme LLC, priority 2019, dated 2025).
